Assay results taken from patent US20230257367A1, “NOVEL THYROID HORMONE BETA RECEPTOR AGONIST” (Chengdu Kanghong Pharmaceutical Co., Ltd., priority 2020, published 2023).

Key:
TRβ = biological target: T1, TRβ (Homo sapiens, UniProt P10828); assay: In vitro TRβ cell transfection experiment (GAL4 luciferase reporter, HEK293T); type: cell-based
T1 construct: host or cells: HEK293T
T1 sequence (P10828 217-461 limits assumed): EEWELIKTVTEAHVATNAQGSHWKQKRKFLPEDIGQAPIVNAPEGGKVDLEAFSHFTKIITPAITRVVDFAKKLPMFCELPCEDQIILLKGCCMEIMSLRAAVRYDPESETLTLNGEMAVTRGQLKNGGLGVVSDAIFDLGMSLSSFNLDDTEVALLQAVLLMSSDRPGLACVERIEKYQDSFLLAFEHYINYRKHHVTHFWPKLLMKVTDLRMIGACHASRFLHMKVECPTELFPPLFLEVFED
T1 sequence (P19793 227-458 partner limits assumed): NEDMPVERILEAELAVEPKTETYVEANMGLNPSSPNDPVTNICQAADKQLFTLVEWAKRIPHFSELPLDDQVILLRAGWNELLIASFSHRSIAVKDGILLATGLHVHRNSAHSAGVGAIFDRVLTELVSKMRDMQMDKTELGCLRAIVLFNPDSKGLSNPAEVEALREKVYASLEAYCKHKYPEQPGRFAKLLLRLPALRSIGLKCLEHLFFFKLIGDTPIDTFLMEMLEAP

primary hepatocyte = assay: Hepatotoxicity detection in vitro (CellTiter-Glo); type: cell-based, human; conditions: primary hepatocytes
Protocol: Information of Primary Hepatocyte
Step 1: a test substance was prepared into a 200 mM DMSO stock solution, and then subjected to 3-times gradient continuous dilution by 7 concentrations, then 1.5 μL of each of the solutions of the 8 concentrations was added into 498.5 μL of incubation culture medium (with a composition referring to Table 5, directly mixed evenly) to prepare a working solution, and the incubation culture medium was preheated at 37° C. before preparation. DMSO was used as a solvent control. DMSO contents in the working solution and the solvent control were both 0.3 vol %. Concentrations of compounds were as follows:
Step 2: Plate Inoculation and Cell Culture
Second Step: Plate Inoculation and Culture of Cells
1) A tube of hepatocytes of the donor used in the experiment preserved at ultra-low temperature was taken, and the hepatocytes were ensured to be still frozen at low temperature before resuscitation. The hepatocytes were quickly placed in a water bath at 37° C. and gently shaken until all ice crystals were dispersed, and were transferred to a biosafety cabinet after spraying 70 vol % ethanol.
2) Contents of hepatocyte tubules were poured into a 50 mL centrifuge tube containing 50 mL of resuscitation culture medium (with a composition referring to Table 3, directly mixed evenly), and centrifuged at 80 g for 8 minutes. After centrifugation, the resuscitation culture medium was sucked out and an inoculation culture medium was added (with a composition referring to Table 4, directly mixed evenly). The cells were counted by AO/PI staining to obtain a cell suspension with a cell density of 0.2×10^6 cells per milliliter.
3) The cell suspension above was inoculated into a 96-well plate coated with collagen I, with 100 μL per well. The culture plate was placed in a 5% CO2 incubator with 95% relative humidity to culture for 4 hours to 6 hours.
4) After incubation for 4 hours to 6 hours, the state of the cells was observed under microscope. The culture plate was shaken gently, the inoculation culture medium was sucked out, and 100 μL of incubation culture medium was added into each well (with a composition referring to Table 5). A toxicity test could be carried out after culturing in the incubator for 18 hours to 20 hours.
5) Before administration, the morphology of the cells was observed under microscope. The culture medium in the culture plate was sucked out, and 100 μL of solvent control (DMSO), or test substance working solution was added into each well. Three parallel samples were tested under each condition.
6) The newly prepared working solution or solvent control was used for solution exchange every 24 hours after dosing.
After the working solution acted for 48 hours, the morphology of the cells was observed under microscope for later use.
Step 3: Cytotoxicity Detection
1) A CellTiter-Glo (Promega, article number G9243) reagent stored at −20° C. was melted in a water bath at 37° C.
2) After the cell culture plate obtained above was incubated for 48 hours, 50 μL of CellTiter-Glo solution was directly added into each experimental well.
3) The cell culture plate was vortexed at 400 rpm for 10 minutes, and incubated at room temperature to stabilize a luminescence signal.
After 10 minutes 100 μL of reaction solution was sucked from each well and transferred to a new white nontransparent-bottom flat plate (Corning 96-well plate Cat No. 3917). The
chemiluminescence value of each well was read by a microplate reader (a luminescence value of the white nontransparent-bottom flat plate was recorded as “a luminescence valueblank”; and a luminescence value of the solvent control was recorded as “a luminescence valuesolvent”).
Cell viability(%)=[(luminescence valueto-be-tested compound−luminescence valueblank)/(luminescence valuesolvent−luminescence valueblank)]×100% […]

TRα-LBD/RXRα = biological target: T2, TRα-LBD/RXRα (Homo sapiens, UniProt P10827); assay: In vitro binding experiment (TR-FRET SRC2-2 co-activator peptide recruitment), TRα; type: biochemical; conditions: 4 h incubation at room temperature
T2 construct: TRα-LBD (Invitrogen, PV4762), or TRβ-LBD (Invitrogen, PV4764) with a GST tag were used; purchased Invitrogen (TRα-LBD); Pharmaron (RXRα) PV4762
T2 sequence (P10827 1-410 isoform P10827-2, other chains not shown): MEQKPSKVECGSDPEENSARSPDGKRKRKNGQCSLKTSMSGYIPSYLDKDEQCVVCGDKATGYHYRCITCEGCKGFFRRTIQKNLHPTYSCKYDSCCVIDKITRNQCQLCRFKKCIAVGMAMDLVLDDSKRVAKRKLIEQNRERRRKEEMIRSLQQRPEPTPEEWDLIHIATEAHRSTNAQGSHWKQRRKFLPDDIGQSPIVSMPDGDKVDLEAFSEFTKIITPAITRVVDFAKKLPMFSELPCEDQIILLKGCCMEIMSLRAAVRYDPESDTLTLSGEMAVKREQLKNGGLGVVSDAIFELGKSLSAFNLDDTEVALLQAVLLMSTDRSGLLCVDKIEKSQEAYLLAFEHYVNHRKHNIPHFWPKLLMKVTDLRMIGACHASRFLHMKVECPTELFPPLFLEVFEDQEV
T2 sequence (P19793 whole entry partner, other chains not shown, the tested form may be a part): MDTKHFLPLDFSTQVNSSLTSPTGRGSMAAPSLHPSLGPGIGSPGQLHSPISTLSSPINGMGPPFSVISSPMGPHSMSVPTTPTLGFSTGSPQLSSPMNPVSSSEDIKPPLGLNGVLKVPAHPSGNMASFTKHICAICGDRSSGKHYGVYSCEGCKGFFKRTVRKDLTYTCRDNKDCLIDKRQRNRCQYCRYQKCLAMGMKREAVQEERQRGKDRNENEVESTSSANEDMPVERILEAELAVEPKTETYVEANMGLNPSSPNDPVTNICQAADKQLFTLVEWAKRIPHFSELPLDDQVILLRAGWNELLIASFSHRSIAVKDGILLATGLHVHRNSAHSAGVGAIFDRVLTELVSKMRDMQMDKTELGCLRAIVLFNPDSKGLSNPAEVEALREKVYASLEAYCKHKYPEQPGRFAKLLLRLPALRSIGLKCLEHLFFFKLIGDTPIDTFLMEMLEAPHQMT

TRβ-LBD/RXRα = biological target: T3, TRβ-LBD/RXRα (Homo sapiens, UniProt P10828); assay: In vitro binding experiment (TR-FRET SRC2-2 co-activator peptide recruitment), TRβ; type: biochemical; conditions: 4 h incubation at room temperature
T3 construct: TRβ-LBD (Invitrogen, PV4764) with a GST tag were used; purchased Invitrogen (TRβ-LBD); Pharmaron (RXRα) PV4764
T3 sequence (P19793 whole entry partner, other chains not shown, the tested form may be a part): as above

NASH model = assay: In vivo pharmacological experiment: DIO + CCl4 induced NASH model; parameters: species or system C57BL/6J male mice; conditions: oral, once per day
Protocol: In the early stages of this experiment, mice induced by DIO (diet-induced obesity) were fed with a high-fat diet, followed by intraperitoneal injection of CCl4 during high-fat diet feeding to induce the NASH model. In this model, the anti-NASH efficacy of the compound to be tested was evaluated Animal information: C57BL/6J male mice (18 weeks old) were used, comprising 32 DIO mice+8 normal mice, wherein the weight of DIO mice >38 g. [table] [table] Induction with CCl4: A 25% (volume ratio) of CCl4 solution was prepared by placing 1 part CCl4 and 3 parts olive oil in a glass bottle. The solution was mixed well and used right after it was ready Eight mice in the first group were intraperitoneally injected with normal saline solution as normal controls The mice in the 2rd to 5th groups were intraperitoneally injected with 25% CCl4 solution twice a week. 25% (volume ratio) CCl4 was administered by body weight, 0.5 ml/kg. The interval between the injection time of CCl4 and the time of administration on the day should be more than 4 hours Histopathological Analysis All liver samples were dehydrated by a dehydrating instrument (Leica HistoCore Pearl-0348) and then embedded by a paraffin embedding machine (HistoCoreArcadia). The embedded liver sample was then sliced using a Lecia RM2235 machine. NAS Score NAS scores were performed on HE (hematoxylin-eosin) stained slices as the sum of steatosis, balloon degeneration, and lobular inflammation. [table] […] Percentage of Fibrosis All slices stained with Sirius red were scanned by a Leica Aperio AT2 Brightfield scanner, and then a percentage of Sirius red positive staining area was calculated by the HALO AI system to evaluate the percentage area of the Sirius red in the total liver area scanned.

CC(C)c1nc(Oc2c(Cl)cc(-n3ncc(=O)[nH]c3=O)cc2Cl)ncc1O [KH06]
EC50 (TRβ): 0.009 µM | IC50 (primary hepatocyte; Homo sapiens, Hepatocyte, cell viability after 48 hours): 207000 nM | Cell activity at the highest concentration (%) (primary hepatocyte; 48 hours, highest working solution concentration 600 μM): 4.50% | EC50 (TRα-LBD/RXRα): 0.094 µM | EC50 (TRβ-LBD/RXRα): 0.007 µM | NAS score (sum of steatosis, ballooning degeneration and lobular inflammation) (NASH model; 1 and 3 mg/kg, compared with the model group, FIG. 2): significant reduction in score | fibrosis evaluation (percentage of Sirius red positive area) (NASH model; 1 and 3 mg/kg, day 0 to day 27, FIG. 1): reducing the proportion of fibrosis | fibrosis efficacy compared with MGL3196 at 3 mg/kg (NASH model; KH06 1 mg/kg, FIG. 1): better than that of MGL3196 at a dosage of 3 mg/kg | NAS score efficacy compared with MGL3196 at 3 mg/kg (NASH model; KH06 1 mg/kg, FIG. 2): same efficacy as MGL3196 at 3 mg/kg
